Reference: US20250170098A1, “MOLECULAR JACKHAMMER FOR MECHANICAL DESTRUCTION OF CELLULAR STRUCTURE” (William Marsh Rice University, priority 2022, published 2025)

Key:
[1] = test system: human melanoma A375 cells; assay: Cell permeabilization to DAPI, flow cytometry analysis; assay type: cell-based; details: for IC50: Homo sapiens, A-375, 10 min, 730 nm LED light at 80 mW/cm^2 for 10 min, DAPI positive cells, read-out: VDA IC50 (effective concentration needed to permeabilize cells by 50%); for permeabilization of the cells to DAPI: 730 nm light at 80 mW/cm^2 for 10 min
Description: The activity of plasmon-driven MJHs to open cell membranes by VDA upon NIR light-activation was evaluated in human melanoma A375 cells. When the cell membranes were open by VDA, DAPI enters immediately into the cells and stain the nucleus, and flow cytometry analysis was used to quantify the percentage of DAPI positive cells at variable concentrations of MJH. The flow cytometry analysis is conducted immediately after the cells were treated with 730 nm LED light at 80 mW/cm^2 for 10 min. Typically, it took ˜30 s to start cell counting and observe that DAPI already had entered into the cell membrane-compromised cells but not in the controls without VDA action. This is indicative of a rapid necrotic cell death and cell membrane permeabilization to DAPI by VDA action. The effective concentration needed to permeabilize cells by 50% (VDA IC50) was estimated for each molecule.
The flow cytometry data was analyzed using FlowJo software version 10.5.3. Then, a wide polygonal gate was drawn as shown in FIG. 33A since we were interested in detecting any cell death after treatment, we were not only interested in measuring healthy cell populations. Sometimes, we observed that the death cell population upon treatment shifted outside the gate if a narrow gate was used. Then, the singlets were selected and the DAPI fluorescence intensity was plotted versus the SSC-A and the gate for DAPI positive cells was drawn as shown in FIG. 33C and the analysis was applied to all samples in the group. In FIG. 33D, a DAPI positive population is observed in the same analysis group. This analysis was applied to calculate the percentage of DAPI positive cells.
Cell Permeabilization and flow cytometry analysis. A375 cells were cultured as described before. One day before the treatment, cells were inoculated at 5 million cells per dish (10 cm polystyrene tissue culture dish). The cells were harvested using 0.05% trypsin-EDTA (Gibco, 25-300-054), then the cells were counted and were adjusted to a cell density of 2×10^5 cells/mL in DMEM media with L-glutamine, 4.5 g/L glucose, and sodium pyruvate (Corning Inc. 10013CV) and supplemented with 10% FBS (Corning, 35010CV), 2×MEM vitamin solution (Gibco, 11120052), 1×MEM non-essential amino acid solution (Gibco, 11140050) and penicillin/streptomycin. 1 mL of this cell suspension containing 2×10^5 cells was used in each treatment. In a 1.5 mL Eppendorf tube, […] containing 2 mM Cy7.5-amine (or other cyanine molecule or other concentration) in DMSO (Fisher, 99.7%) was placed in the bottom of the tube, then 1 mL of the cell suspension was added into the tube to get final concentration of 2 μM of Cy7.5-amine containing 0.1% DMSO and 2×10^5 cells. The mixture was then incubated at 37° C. and 5% CO2 for 30 min. Then, 1 mM DAPI was added into the cell suspension. Then, the cells suspension was transferred to a […] tissue culture dish and immediately the cells were treated under the light beam of NIR light of 730 nm at 80 mW/cm^2 (or adjusted powers down to 20 mW/cm^2) for 10 min (or adjusted illumination times down to 30 s) using LED light source (PRIZMATIX, UHP-F-730, Israel) which covered the entire dish. While the cells were treated, the dish was placed on top of an aluminum block painted black, so that the excess NR light and that was not reflected back into the cell suspension while the aluminum block actED as a heat-sink, maintaining a constant temperature in the dish during the irradiation. The instrument for flow cytometry analysis (SONY, MA900 Multi-Application Cell Sorter) was already set up and calibrated by the time the light treatment was finished. Therefore, as soon as the 10-min light treatment was completed, the cell suspension was rapidly transferred from the 35 mm dish to a flow cytometry tube and the cells were analyzed for DAPI permeabilization and Cy7.5-amine binding. It took ˜30 s to load the sample and to start the analysis. […]

A375 cells = assay: Clonogenic assay; assay type: cell-based, human; details: Homo sapiens, A-375, read-out: lethal concentration to kill the cell population by 50% (VDA IC50)
Description: The clonogenic assay was conducted to confirm that cancer cells treated by plasmon-driven MJH are indeed death upon NIR-light activation (FIG. 18). Three molecules were analyzed: the most VDA active BL-204, medium active BL-141-2 and low active Cy7-amine. […] This was accomplished by incubating the MJH molecules with the A375 cells for 50 min and immediately activate the plasmon-driven MJH using 730 nm NIR-light at 80 mW/cm^2 for 10 min. This is considered a short contact time between the MJH and the A375 cells.
Clonogenic assay. A375 cells were seeded in 35 mm cell culture dishes at predetermined densities to allow for an approximately equal number of resultant colonies. The next day, cells were treated with Cy7.5-amine at variable concentration and with or without 730 nm light at 80 mWcm^−2 for 10 min. The cells were incubated with Cy7.5-amine for 50 min before the illumination, the media was replaced with fresh media after the illumination and cells were cultured for 6 days to allow for colony formation. Cells were then washed once with PBS and fixed-stained in a 0.5% (w/v) crystal violet in methanol/water solution (1:1) during 10 min. The excess of crystal violet was washed off with water, the plates were dried at room temperature and then the colonies were counted using ImageJ software version 1.52a, and the survival fraction was determined. All treatments were in triplicate.

Row | IC50 [1] | Compound | IC50 (A375 cells) | further results
1 |  | CN1/C(=C\C=C2C=C(/C=C/C3=[N+](CCCCCC(=O)NCCCCCCN)c4ccccc4C3(C)C)CCC\2)C(C)(C)c2ccccc21 [Cy7-amine] | 175 nM | permeabilization to DAPI staining, percentage of cells ([1]; 1 μM, 730 nm LED at 80 mW/cm^2 for 10 min): 0.8%; effect of 680 nm excitation on opening cell membranes ([1]; 680 nm LED, 80 mWcm^−2 for 10 min): improves the MJH effect for opening cell membranes
2 | > 8000 nM | CN1/C(=C/C=C2C=C(/C=C/c3ccc4ccccc4[n+]3C)CCC/2)C=Cc2ccccc21 [BL-206] |  | 
3 | > 8000 nM | CC1(C)C(/C=C/C=C/C=C/C=C2\N(CCCCS(=O)(=O)O)c3ccc4ccccc4c3C2(C)C)=[N+](CCCCS(=O)(=O)[O-])c2ccc3ccccc3c21 [ICG, indocynine green] |  | permeabilization of the cells to DAPI ([1]; 32 μM): 2%; permeabilization of the cells to DAPI ([1]; 400 μM): 14%
4 |  | CN(C)CCCCCC[N+]1=C(/C=C/C2=CC(=C/C=C3/N(C)c4ccc5ccccc5c4C3(C)C)/CCC2)C(C)(C)c2c1ccc1ccccc21 [BL-141-2, 3-(6-(dimethylamino)hexyl)-1,1-dimethyl-2-((E)-2-((E)-3-((E)-2-(1,1,3-trimethyl-1,3-dihydro-2H-benzo[e]indol-2-ylidene)ethylidene)cyclohex-1-en-1-yl)vinyl)-1H-benzo[e]indol-3-ium] | 65 nM | 

Row | Compound | IC50 [1] | IC50 (A375 cells) | further results
5 | CN(C)CC[N+]1=C(/C=C/C2=CC(=C/C=C3/N(C)c4ccc5ccccc5c4C3(C)C)/CCC2)C(C)(C)c2c1ccc1ccccc21 [BL-204, 3-(2-(dimethylamino)ethyl)-1,1-dimethyl-2-((E)-2-((E)-3-((E)-2-(1,1,3-trimethyl-1,3-dihydro-2H-benzo[e]indol-2-ylidene)ethylidene)cyclohex-1-en-1-yl)vinyl)-1H-benzo[e]indol-3-ium] | 120 nM | 45 nM | 
